≈ marks a conversion by molar mass, not a printed value. Like-named read-outs stand apart in the source and are kept apart here. Positions of bridges follow the written chain, without caps; N, C: chain ends. Non-standard residues stand in square brackets, D forms with d. Residues, ends and D or L forms follow the SMILES beside them. Chains are numbered I, II in the order given. βAla = NCCC(=O)O
How the values were obtained:
Sprague Dawley rats = assay: Four-week toxicity study in rats: clinical biochemistry and urinalysis; assay type: in vivo, rat; settings: mean ± SD
Description: The purpose of this study was to evaluate the toxic effects of SET-M33 when administered intravenously to Sprague Dawley rats for 4 weeks. Recovery was evaluated during a 14-day drug-free period. The peptide was administered once a day at three dose levels at 5, 9 and 15 mg/kg/day, and the control group was treated with the vehicle (ten males and ten females per group which were sacrificed after 4 weeks for clinical and necroscopy analyses; five males and five females for the control and 15 mg/kg/day groups which were sacrificed after the 2 weeks recovery period). The higher dose was selected on the basis of the DRF study (above) in which evident toxicity was recorded at the dose of 20 mg/kg. The efficacy dose in mouse is 5 mg/kg[24]. The lowest dose of this test is approximately twice the equivalent efficacy dose in rat (using body surface area) and the intermediate dose is approximately the geometric mean of the other two.
Blood samples were collected into lithium heparin tubes. The following parameters were determined using a Cobas 6000 Analyzer (Roche): glucose (Gluc), urea (Urea), creatinine (Creat), bilirubin, total (Bili), cholesterol, total (Chol), triglycerides (Trig), aspartate aminotransferase (AST), alanine aminotransferase (ALT), alkaline phosphatase (ALP), creatine kinase (CK), gamma-glutamyl-transferase (gGT), calcium (Ca), inorganic phosphorus (Phos), sodium (Na), potassium (K), chloride (Cl), albumin (Alb), globulin (calculated from total protein and Alb%) (Glob), total protein (Total Prot), album/globulin ratio (A/G ratio).
Urine was collected overnight into specimen vials (animals were placed in metabolism cages at the end of the working day preceding the day of urine collection). The following parameters were determined using a Cobas u 411 semi-automated test strip analyser (Roche): specific gravity (SG1), protein (Prot), ketones (Keto), volume (Vol), creatinine (U-Creat), bilirubin (Bili), colour (Col), glucose (U-Gluc), erythrocytes (U-RBC), appearance (App), nitrite (Nite), pH, leukocytes (U-WBC).

rats = assay: Respiratory function in rats (whole body plethysmography); assay type: in vivo, rat
Description: The possible side-effects of SET-M33 on respiratory function were evaluated after administration of the peptide as a single intravenous bolus at doses of 5, 9 and 15 mg/kg with vehicle (eight animals/group). Respiratory rate, tidal volume and minute volume were assessed. As in the case of neurological toxicity and the 4-week toxicity study, again the dose levels were selected on the basis DRF (above). Baclofen, a muscle relaxer and antispasmodic used to treat muscle pain, spasms and stiffness in people with multiple sclerosis or spinal cord injury or disease, was used as positive control. It was administered as a single intravenous injection at a dose of 15 mg/kg.
Whole body, bias flow plethysmography equipment was used[51]. Respiratory parameters (respiratory rate, tidal volume and minute volume) were derived from the changes in pressure associated with the warming and humidification of the air breathed in by the animal. This was monitored by specific probes located in the plethysmograph chambers. Bias flow (room air) was set at approximately 2.5 L/min. On a day prior to the first day of dosing, all animals were habituated to the plethysmographs for approximately 2 h. The study was run over 4 days and 10 animals (two from each group) were examined each day. On the day of dosing, the animals were placed in the plethysmographs for pre-dose recording (session 1) of respiratory parameters for 60 min. Groups of 8 rats were then removed from the chambers and dosed by intravenous bolus injection with vehicle, SET-M33 or positive control. Immediately after dosing, the rats were placed in the whole body plethysmographs, where they could move about freely, to continuously record respiratory parameters for 4 h post-dose (undisturbed recording). Immediately after the last post-dose recording, the animals were killed humanely by a rising concentration of carbon dioxide. Death was confirmed by dislocation of the neck. Respiratory parameters were reported at the following time points: 0, 30, 60, 90, 120, 150, 180, 210 and 240 min. Time 0 coincided with the mean value of the last 20 min of data recorded in the 60-min pre-dose period. All other time points were the mean of 10-min recordings (an average of every 10 breaths) around each time point. Each post-dose time point was analysed separately by analysis of covariance. Factors in the model were group and day of data collection, with pre-dose values as covariate.

[1] = Toxicokinetics in dogs, 4 weeks daily 1-h iv infusion; assay type: in vivo; settings: dog; for Cmax / tmax / AUC0-24 / AUC(0-t): iv
Description: Plasma concentrations and the main toxicokinetic parameters of SET-M33 in plasma samples were determined in beagle dogs after intravenous administration of SET-M33 by daily 1-h-infusion at 0.5, 1.5 or 4.0 mg/kg/day or only vehicle for 4 weeks (5 animals/group/sex). Blood samples were taken on day 1 and day 28.
The time when the maximum plasma concentration occurred (Tmax) was at the end of the 1-h infusion in all animals, as expected for this route of administration. Plasma concentrations of SET-M33 at 24 h post-dose were below the limit of quantification (< 20.0 ng/ml) in all animals at all dose levels on day 1 and day 28 (not shown).
On days 1 and 28, blood samples were obtained for toxicokinetic determinations from all animals at the following times: Day 1 at the end of infusion and 5, 10, 15, 30, 60 and 180 min later; […] and 24 h ± 30 min post-dose; Day 28 at the end of infusion and 5, 10, 15, 30, 60 and 180 min later; […] and 24 h ± 30 min post-dose. Blood samples were collected into lithium heparin test tubes and kept in an ice bath until centrifuging (1600 g for 10 min at 2–8 °C). The plasma obtained from each sample was transferred to a fresh polypropylenes test tubes, immediately frozen in dry ice and stored at − 20 °C ± 5. Bioanalytical samples were analysed by a validated liquid chromatographic mass spectrometric assay. Pharmacokinetic parameters were calculated using the computer program Phoenix WinNonlin version 6.3 (Certara USA, Inc).

P. aeruginosa = settings: cited from earlier work
K. pneumoniae = settings: cited from earlier work
[2] = female, beagle, in vivo, 4 mg/kg/day
[3] = male, beagle, in vivo, 0.5 mg/kg/day
[4] = male, beagle, in vivo, 4 mg/kg/day

CC[C@H](C)[C@H](NC(=O)[C@H](CCCCN)NC(=O)[C@@H](N)CCCCN)C(=O)N[C@@H](CCCNC(=N)N)C(=O)N[C@H](C(=O)N[C@@H](CCCNC(=N)N)C(=O)N[C@@H](CC(C)C)C(=O)N[C@@H](CO)C(=O)N[C@@H](C)C(=O)NCCCC[C@H](NC(=O)[C@H](C)NC(=O)[C@H](CO)NC(=O)[C@H](CC(C)C)NC(=O)[C@H](CCCNC(=N)N)NC(=O)[C@@H](NC(=O)[C@H](CCCNC(=N)N)NC(=O)[C@@H](NC(=O)[C@H](CCCCN)NC(=O)[C@@H](N)CCCCN)[C@@H](C)CC)C(C)C)C(=O)NCCCC[C@H](NC(=O)[C@H](CCCCNC(=O)[C@H](C)NC(=O)[C@H](CO)NC(=O)[C@H](CC(C)C)NC(=O)[C@H](CCCNC(=N)N)NC(=O)[C@@H](NC(=O)[C@H](CCCNC(=N)N)NC(=O)[C@@H](NC(=O)[C@H](CCCCN)NC(=O)[C@@H](N)CCCCN)[C@@H](C)CC)C(C)C)NC(=O)[C@H](C)NC(=O)[C@H](CO)NC(=O)[C@H](CC(C)C)NC(=O)[C@H](CCCNC(=N)N)NC(=O)[C@@H](NC(=O)[C@H](CCCNC(=N)N)NC(=O)[C@@H](NC(=O)[C@H](CCCCN)NC(=O)[C@@H](N)CCCCN)[C@@H](C)CC)C(C)C)C(=O)NCCC(=O)O)C(C)C [SET-M33] (I: H-KKIRVRLSAKK[βAla]-OH / II: H-KKIRVRLSAK / III: H-KKIRVRLSA / IV: H-KKIRVRLSA; amide I:10-IV:C, I:11-II:C, II:10-III:C (inferred); N-terminus and C-terminus assumed)
Phos, inorganic phosphorus (Sprague Dawley rats; female rats, 9 mg/kg/day iv, week 4 of treatment): 1.49 ± 0.415 mmol/L | Phos, inorganic phosphorus (Sprague Dawley rats; female rats, 15 mg/kg/day iv 4 weeks, week 2 of recovery): 2.04 ± 0.616 mmol/L | Phos, inorganic phosphorus (Sprague Dawley rats; male rats, 5 mg/kg/day iv, week 4 of treatment): 1.97 ± 0.309 mmol/L | Phos, inorganic phosphorus (Sprague Dawley rats; male rats, 9 mg/kg/day iv, week 4 of treatment): 2.26 ± 0.393 mmol/L | Phos, inorganic phosphorus (Sprague Dawley rats; male rats, 15 mg/kg/day iv 4 weeks, week 2 of recovery): 2.83 ± 1.37 mmol/L | minute volume vs vehicle (rats; rats, 15 mg/kg single iv bolus, 30 min post-dose, subsided by 60 min): statistically significant increase | effects on respiratory rate, tidal volume or minute volume (rats; rats, 5, 9 and 15 mg/kg single iv bolus, 4 h post-dose, n=8/group): did not produce any statistically significant adverse effects | Cmax and AUC0-24 relative to values predicted for a linear relationship ([1]; in vivo, 4 mg/kg/day): approximately 2.1 times | Cmax ([1]; in vivo, 0.5 mg/kg/day): 82.8 ± 19.1 ng/mL | tmax ([1]; in vivo, 0.5 mg/kg/day): EOI | tmax ([1]; in vivo, 1.5 mg/kg/day): EOI | tmax ([1]; in vivo, 4 mg/kg/day): EOI | AUC0-24 ([1]; female, beagle, in vivo, 0.5 mg/kg/day): 45.6 ± 10.4 ng·h/mL | AUC(0-t) ([1]; female, beagle, in vivo, 0.5 mg/kg/day, AUC0-24): 76.5 ± 25.2 ng·h/mL | Cmax ([1]; female, beagle, in vivo, 0.5 mg/kg/day, Cmax): 125 ± 35 ng/mL | Cmax ([1]; female, beagle, in vivo, 1.5 mg/kg/day): 345 ± 87 ng/mL | Cmax ([1]; female, beagle, in vivo, 1.5 mg/kg/day, Cmax): 645 ± 121 ng/mL | AUC0-24 [1, 2]: 991 ± 161 ng·h/mL | Cmax [1, 2]: 1360 ± 220 ng/mL | AUC(0-t) ([1]; female, beagle, in vivo, 4 mg/kg/day, AUC0-24): 1550 ± 450 ng·h/mL | Cmax ([1]; female, beagle, in vivo, 4 mg/kg/day, Cmax): 1930 ± 350 ng/mL | AUC0-24 [1, 3]: 42.2 ± 13.3 ng·h/mL | Cmax [1, 3]: 82.4 ± 22.4 ng/mL | AUC(0-t) ([1]; male, beagle, in vivo, 0.5 mg/kg/day, AUC0-24): 83 ± 9.8 ng·h/mL | Cmax ([1]; male, beagle, in vivo, 0.5 mg/kg/day, Cmax): 149 ± 16 ng/mL | Cmax ([1]; male, beagle, in vivo, 1.5 mg/kg/day): 274 ± 110 ng/mL | AUC(0-t) ([1]; male, beagle, in vivo, 1.5 mg/kg/day, AUC0-24): 157 ± 60 ng·h/mL | Cmax ([1]; male, beagle, in vivo, 1.5 mg/kg/day, Cmax): 470 ± 218 ng/mL | AUC0-24 [1, 4]: 569 ± 99 ng·h/mL | Cmax [1, 4]: 816 ± 188 ng/mL | AUC(0-t) ([1]; male, beagle, in vivo, 4 mg/kg/day, AUC0-24): 1050 ± 150 ng·h/mL | Cmax ([1]; male, beagle, in vivo, 4 mg/kg/day, Cmax): 1490 ± 440 ng/mL | AUC(0-t) ([1]; male, beagle, plasma, 1.5 mg/kg/day, male dogs, 1.5 mg/kg/day 1-h iv infusion, day 28, plasma, LC-MS, mean ± SD, n=5, read-out: AUC0-24): 416 ± 209 ng·h/mL | MIC50 (P. aeruginosa): 1.4 µM (≈ 6.56 µg/mL) | MIC90 (P. aeruginosa): 1.4 µM (≈ 6.56 µg/mL) | MIC50 (K. pneumoniae): 1.4 µM (≈ 6.56 µg/mL) | MIC90 (K. pneumoniae): 2.8 µM (≈ 13.1 µg/mL)

Source: article PMC9652379, “Safety evaluations of a synthetic antimicrobial peptide administered intravenously in rats and dogs” (Scientific Reports, 2022)
